Where “and” joins values, the source holds several entries; their conditions need not be identical. Equal values may be shown once. Marks after values point to notes of the source that are not given here.
What was measured:
[1] = system: MCF-7 breast carcinoma cells; experiment: Tumor cell growth in vitro (sulforhodamine B), MCF-7; assay type: cell-based, human; settings: rounded off to one digit, read-out: Inhibition of tumor cell growth in vitro, IC50
Procedure, shortened: (§1)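 Cells in RPMI 1640 + 5% FBS, plated 1000/well (H-460, 9L) or 2000/well (MCF-7); compounds added day 1 from 2 mM BSA stocks diluted 500-fold in medium. Growth read by sulforhodamine B staining, A520, at day 5 (H-460, 9L) or day 6 (MCF-7), as percent of control.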

[2] = system: H-460 lung large cell carcinoma cells; experiment: Tumor cell growth in vitro (sulforhodamine B), H-460; assay type: cell-based, human; settings: rounded off to one digit, read-out: Inhibition of tumor cell growth in vitro, IC50
Procedure, shortened: as §1

[3] = system: HT-29 colon adenocarcinoma cells; experiment: Tumor cell growth in vitro (sulforhodamine B), HT-29; assay type: cell-based, human; settings: rounded off to one digit, read-out: Inhibition of tumor cell growth in vitro, IC50
Experimental: (§2) Growth of cell lines. Comparisons of different inhibitors with regard to suppression of human cancer cell growth were made by the University of Michigan Cancer Center in vitro Drug Evaluation Core Laboratory. MCF-7 breast carcinoma cells, HT-29 colon adenocarcinoma cells, H-460 lung large cell carcinoma cells, and 9L brain gliosarcoma cells were grown in RPMI 1640 medium with 5% fetal bovine serum, 2 mM glutamine, 50 units/ml of penicillin, […] of streptomycin, and 0.1 mg/ml of neomycin. UMSCC-10A head and neck squamous carcinoma cells were grown in minimal essential medium with Earle salts and the same supplements. Medium components were from Sigma Chemical Co. Cells were plated in 96-well microtiter plates (1000 cells/well for H-460 and 9L cells, and 2000 cells/well for the other lines), and the test compounds were added 1 day later. The stock inhibitor solutions, 2 mM in 2 mM BSA, were diluted with different amounts of additional 2 mM BSA, then each solution was diluted 500-fold with growth medium to obtain the final concentrations indicated in the Figures and Tables.
(§3) Five days after plating the H-460 and 9L cells, or 6 days for the other lines, cell growth was evaluated by staining the adhering cells with sulforhodamine B and measuring the absorbance at 520 nm (Skehan, P. et al., “New Colorimetric Cytotoxicity Assay for Anticancer-Drug Screening,” J. Natl. Cancer Inst., 82:1107-1112 (1990)). The absorbance of the treated cultures is reported as percent of that of control cultures, to provide an estimate of the fraction of the cells that survived, or of inhibition of growth rate.

[4] = system: 9L brain gliosarcoma cells; experiment: Tumor cell growth in vitro (sulforhodamine B), 9L; assay type: cell-based; settings: for IC50: 9L, rounded off to one digit, read-out: Inhibition of tumor cell growth in vitro, IC50; for growth, % of control growth: 9L cells
Procedure, shortened: as §1

[5] = system: UMSCC-10A head and neck squamous carcinoma cells; experiment: Tumor cell growth in vitro (sulforhodamine B), UMSCC-10A; assay type: cell-based, human; settings: rounded off to one digit, read-out: Inhibition of tumor cell growth in vitro, IC50
Experimental: as §2, §3

MDCK cells [6] = experiment: Lipid changes in MDCK cells (GlcCer, ceramide, diacylglycerol); assay type: cell-based, canine; settings: for Ceramide / Diglyceride: diglyceride kinase method; for level of GlcCer, estimated visually (TLC): 24 h incubation
Experimental: TLC of the cell lipids was run with C-M-W 24:7:1 (solvent D) or 60:35:8 (solvent E).
Ceramide accumulation was similar for both stereoisomers (data not shown). An unexpected finding is that noticeable ceramide accumulation appeared only at inhibitor concentrations that were more than enough to bring GlcCer levels to a very low point (e.g., at 2 or 4 μM). The changes in ceramide concentration were quantitated in a separate experiment by the diglyceride kinase method, which allows one to also determine diacylglycerol (DAG) concentration (Preiss, J. E. et al., “Quantitative Measurement of SN-1,2-Diacylglycerols Present in Platelets, Hepatocytes, and Ras- and Sis-Transformed Normal Rat Kidney Cells,” J. Biol. Chem., 261:8597-8600 (1986)). The results (Table 5) are similar to the visually estimated ones: at 0.4 μM BML-129 or -130 there was little effect on ceramide content but at 4 μM inhibitor, a substantial increase was observed. (While the duplicate protein contents per incubation dish were somewhat erratic in the high-dose dishes, in which growth was slow, the changes were nevertheless large and clear.) Accumulation of ceramide had previously been observed with PDMP, at a somewhat higher level of inhibitor in the medium (Shayman, J. A. et al., “Modulation of Renal Epithelial Cell Growth by Glucosylceramide: Association with Protein Kinase C, Sphingosine, and Diacylglyceride,” J. Biol. Chem., 266:22968-22974 (1991)). From the data for cellular protein per incubation dish, it can be seen that there was no growth inhibition at the 0.4 μM level with either compound but substantial inhibition at the 4 μM level, especially with the glucosyltransferase inhibitor, BML-130. This finding is similar to the ones made in longer incubations with human cancer cells.

Ceramide synthase = Ceramide synthase of MDCK homogenate; assay type: biochemical, canine
Experimental: Ceramide synthase was assayed with 1 μM [3-^3H]sphingosine (70,000 cpm, repurified by column chromatography), 0.2 mM stearoyl-CoA, 0.5 mM dithiothreitol, and ˜300 μg of MDCK homogenate protein in 25 mM phosphate-K^+ buffer, pH 7.4, in a total volume of 0.2 ml. The incubation (for 30 min) and TLC were carried out as above and the ceramide band was counted.

[7] = system: Neutral sphingomyelinase (SMase); experiment: Neutral sphingomyelinase of MDCK cells; assay type: biochemical, canine
Experimental: Acid and neutral SMase assays were based on the procedures of Gatt et al. (Gatt, S. et al., “Assay of Enzymes of Lipid Metabolism With Colored and Fluorescent Derivatives of Natural Lipids,” Meth. Enzymol., 72:351-375 (1981)), using liposomes containing NBD-SM dispersed like the labeled ceramide (10 μM substrate and 30 μM lecithin). […] Incubation was at 37° C. for 30 min in the ultrasonic bath, then the fluorescent product, NBD-ceramide, was isolated by partitioning the assay mixture with 0.45 ml 2-propanol, 1.5 ml heptane, and 0.2 ml water. After centrifugation, a trace of contaminating NBD-SM was removed from 0.9 ml of the upper layer by washing with 0.35 ml water. The upper layer was analyzed with a fluorometer (460 nm excitation, 515 nm emission).

Sphingomyelin synthase = Sphingomyelin synthase of MDCK homogenate; assay type: biochemical, canine
Experimental: Sphingomyelin synthase was evaluated with 44 μM [^14C]decanoyl sphingosine (10^5 cpm) dispersed with 136 μM dioleoyllecithin as in the ceramide synthase assay, and 5 mM EDTA and 50 mM Hepes-Na^+ pH 7.5, in a total volume of 0.5 ml. MDCK homogenate was centrifuged at 600×g briefly, then at 100,000×g for 1 h, and the pellet was suspended in water and sonicated with a dipping probe. A portion of this suspension containing 300 μg of protein was used. Incubation was at 37° C. for 30 min, after which the lipids were treated as above, using C-M-W 60:35:8 for the isolation of the labeled decanoyl SM.

MDCK cells [8] = experiment: Lipid changes in MDCK cells (GlcCer, ceramide, diacylglycerol); assay type: cell-based, canine; settings: 24 h

IC50 [1]	IC50 [2]	IC50 [3]	IC50 [4]	IC50 [5]	Ceramide Synthase, enzyme activity (% of control) (Ceramide synthase; 5 μM)	Ceramide Synthase, enzyme activity (% of control) (Ceramide synthase; 50 μM)	Sphingomyelinase Synthase, enzyme activity (% of control) (Sphingomyelin synthase; 5 μM)	Sphingomyelinase Synthase, enzyme activity (% of control) (Sphingomyelin synthase; 50 μM)	SMILES	Ceramide (MDCK cells [6]; 0.4 μM)	Diglyceride (MDCK cells [6]; 0.4 μM)	Ceramide (MDCK cells [6]; 4 μM)	Diglyceride (MDCK cells [6]; 4 μM)	Sphingomyelinase pH 7.1, enzyme activity (% of control) ([7]; 5 μM)	Sphingomyelinase pH 7.1, enzyme activity (% of control) ([7]; 50 μM)	inhibition of sphingomyelin synthase (Sphingomyelin synthase; 50 μM)	also measured
3000 nM	2000 nM	2000 nM	2000 nM	2000 nM	97 ± 0 % of control	102 ± 1 % of control	84 ± 27 % of control	46 ± 11^b % of control	CCCCCCCCCCCCCCCC(=O)NC(CN1CCCC1)C(O)c1ccccc1 (racemic) [BML-129]	0.99 nmol/mg protein and 1.29 nmol/mg protein	5.13 nmol/mg protein and 5.51 nmol/mg protein	3.57 nmol/mg protein and 3.78 nmol/mg protein	9.30 nmol/mg protein and 9.68 nmol/mg protein	105 ± 11 % of control	142 ± 11^b % of control	54%	level of GlcCer, estimated visually (TLC) (MDCK cells [6]; 0.5 μM): greatly lowered; ceramide concentration, TLC densitometry, compared with BML-130 (MDCK cells [8]; various concentrations): virtually identical
2000 nM	3000 nM	2000 nM	2000 nM	2000 nM	108 ± 10 % of control	106 ± 29 % of control	87 ± 14 % of control	39 ± 18^b % of control	CCCCCCCCCCCCCCCC(=O)NC(CN1CCCC1)C(O)c1ccccc1 (racemic) [BML-130]	0.94 nmol/mg protein and 0.87 nmol/mg protein	4.73 nmol/mg protein and 5.65 nmol/mg protein	5.41 nmol/mg protein and 3.34 nmol/mg protein	11.9 nmol/mg protein and 8.71 nmol/mg protein	110 ± 7 % of control	152 ± 14 % of control	61%	growth, % of control growth ([4]; 2 μM inhibitor): 93%; growth, % of control growth ([4]; 3 μM inhibitor): 5%; level of GlcCer, estimated visually (TLC) (MDCK cells [6]; 0.3 μM): greatly lowered; ceramide concentration, TLC densitometry (MDCK cells [8]; 0.5 μM): 1.0 nmol/mg protein; ceramide concentration, TLC densitometry (MDCK cells [8]; 1 μM): 1.1 nmol/mg protein; ceramide concentration, TLC densitometry (MDCK cells [8]; 2 μM): 1.5 nmol/mg protein; ceramide concentration, TLC densitometry (MDCK cells [8]; 4 μM): 3.3 nmol/mg protein

— patent US6916802B2, “Amino ceramide-like compounds and therapeutic methods of use” (Genzyme Corporation, priority 2002, dated 2005)
